Reference: the NIST ThermoML archive (doi:10.1021/je7002836)

What was measured:
[1] = molar heat capacity at constant pressure; xn = mol fraction of the nth substance listed; settings: 101 kPa, Liquid
[2] = xn = mol fraction of the nth substance listed; settings: 101 kPa, Liquid

CCCC[n+]1cccc(C)c1.F[B-](F)(F)F [1-butyl-3-methylpyridinium tetrafluoroborate] + O
Settings | mass density, [2] [kg/m3] | molar heat capacity at constant pressure, [1] [J/K/mol]
293.15 K, x1 = 0.0015 | – | 76.7
293.15 K, x1 = 0.002 | – | 77.4
293.15 K, x1 = 0.0027 | – | 77.7
293.15 K, x1 = 0.0036 | – | 78.1
293.15 K, x1 = 0.0102 | – | 81
293.15 K, x1 = 0.0494 | 1066 | –
293.15 K, x1 = 0.0938 | – | 112.7
293.15 K, x1 = 0.0973 | 1095.9 | –
293.15 K, x1 = 0.1885 | – | 142.4
293.15 K, x1 = 0.2312 | 1139.7 | –
293.15 K, x1 = 0.2704 | – | 167
293.15 K, x1 = 0.3559 | 1157.3 | –
293.15 K, x1 = 0.362 | – | 193.8
293.15 K, x1 = 0.4035 | 1161.8 | –
293.15 K, x1 = 0.4454 | – | 218.2
293.15 K, x1 = 0.5195 | 1167.9 | –
293.15 K, x1 = 0.6432 | – | 275.2
293.15 K, x1 = 0.7087 | 1179.5 | –
293.15 K, x1 = 0.7512 | 1181.2 | –
293.15 K, x1 = 0.8094 | – | 325.2
293.15 K, x1 = 0.8791 | – | 346
293.15 K, x1 = 0.8838 | 1183.2 | –
293.15 K, x1 = 0.9468 | – | 367.8
293.15 K, x1 = 1 | 1188.6 | 385.8
298.15 K, x1 = 0.0015 | – | 76.7
298.15 K, x1 = 0.002 | – | 77.4
298.15 K, x1 = 0.0027 | – | 77.7
298.15 K, x1 = 0.0036 | – | 78.2
298.15 K, x1 = 0.0102 | – | 81.1
298.15 K, x1 = 0.0494 | 1063.3 | –
298.15 K, x1 = 0.0938 | – | 113.1
298.15 K, x1 = 0.0973 | 1092.7 | –
298.15 K, x1 = 0.1885 | – | 143.1
298.15 K, x1 = 0.2312 | 1136 | –
298.15 K, x1 = 0.2704 | – | 167.8
298.15 K, x1 = 0.3559 | 1153.6 | –
298.15 K, x1 = 0.362 | – | 195
298.15 K, x1 = 0.4035 | 1158.2 | –
298.15 K, x1 = 0.4454 | – | 219.3
298.15 K, x1 = 0.5195 | 1164.3 | –
298.15 K, x1 = 0.6432 | – | 276.9
298.15 K, x1 = 0.7087 | 1176 | –
298.15 K, x1 = 0.7512 | 1177.8 | –
298.15 K, x1 = 0.8094 | – | 327.3
298.15 K, x1 = 0.8791 | – | 348.3
298.15 K, x1 = 0.8838 | 1179.8 | –
298.15 K, x1 = 0.9468 | – | 370.4
298.15 K, x1 = 1 | 1185.2 | 387.7
303.15 K, x1 = 0.0015 | – | 76.8
303.15 K, x1 = 0.002 | – | 77.5
303.15 K, x1 = 0.0027 | – | 77.7
303.15 K, x1 = 0.0036 | – | 78.2
303.15 K, x1 = 0.0102 | – | 81.2
303.15 K, x1 = 0.0494 | 1060.4 | –
303.15 K, x1 = 0.0938 | – | 113.4
303.15 K, x1 = 0.0973 | 1089.4 | –
303.15 K, x1 = 0.1885 | – | 143.8
303.15 K, x1 = 0.2312 | 1132.3 | –
303.15 K, x1 = 0.2704 | – | 168.6
303.15 K, x1 = 0.3559 | 1150 | –
303.15 K, x1 = 0.362 | – | 196.1
303.15 K, x1 = 0.4035 | 1154.5 | –
303.15 K, x1 = 0.4454 | – | 220.5
303.15 K, x1 = 0.5195 | 1160.8 | –
303.15 K, x1 = 0.6432 | – | 278.6
303.15 K, x1 = 0.7087 | 1172.5 | –
303.15 K, x1 = 0.7512 | 1174.3 | –
303.15 K, x1 = 0.8094 | – | 329.5
303.15 K, x1 = 0.8791 | – | 350.8
303.15 K, x1 = 0.8838 | 1176.3 | –
303.15 K, x1 = 0.9468 | – | 373
303.15 K, x1 = 1 | 1181.7 | 390.1
308.15 K, x1 = 0.0015 | – | 76.9
308.15 K, x1 = 0.002 | – | 77.6
308.15 K, x1 = 0.0027 | – | 77.8
308.15 K, x1 = 0.0036 | – | 78.3
308.15 K, x1 = 0.0102 | – | 81.3
308.15 K, x1 = 0.0494 | 1057.5 | –
308.15 K, x1 = 0.0938 | – | 113.8
308.15 K, x1 = 0.0973 | 1086 | –
308.15 K, x1 = 0.1885 | – | 144.5
308.15 K, x1 = 0.2312 | 1128.7 | –
308.15 K, x1 = 0.2704 | – | 169.5
308.15 K, x1 = 0.3559 | 1146.4 | –
308.15 K, x1 = 0.362 | – | 197.3
308.15 K, x1 = 0.4035 | 1150.9 | –
308.15 K, x1 = 0.4454 | – | 221.7
308.15 K, x1 = 0.5195 | 1157.2 | –
308.15 K, x1 = 0.6432 | – | 280.3
308.15 K, x1 = 0.7087 | 1169.1 | –
308.15 K, x1 = 0.7512 | 1170.8 | –
308.15 K, x1 = 0.8094 | – | 331.7
308.15 K, x1 = 0.8791 | – | 353.3
308.15 K, x1 = 0.8838 | 1172.9 | –
308.15 K, x1 = 0.9468 | – | 375.7
308.15 K, x1 = 1 | 1178.3 | 392.8
313.15 K, x1 = 0.0015 | – | 77
313.15 K, x1 = 0.002 | – | 77.6
313.15 K, x1 = 0.0027 | – | 77.9
313.15 K, x1 = 0.0036 | – | 78.4
313.15 K, x1 = 0.0102 | – | 81.5
313.15 K, x1 = 0.0494 | 1054.5 | –
313.15 K, x1 = 0.0938 | – | 114.2
313.15 K, x1 = 0.0973 | 1082.5 | –
313.15 K, x1 = 0.1885 | – | 145.2
313.15 K, x1 = 0.2312 | 1125 | –
313.15 K, x1 = 0.2704 | – | 170.4
313.15 K, x1 = 0.3559 | 1142.7 | –
313.15 K, x1 = 0.362 | – | 198.4
313.15 K, x1 = 0.4035 | 1147.3 | –
313.15 K, x1 = 0.4454 | – | 222.8
313.15 K, x1 = 0.5195 | 1153.7 | –
313.15 K, x1 = 0.6432 | – | 282.1
313.15 K, x1 = 0.7087 | 1165.6 | –
313.15 K, x1 = 0.7512 | 1167.4 | –
313.15 K, x1 = 0.8094 | – | 334
313.15 K, x1 = 0.8791 | – | 355.8
313.15 K, x1 = 0.8838 | 1169.5 | –
313.15 K, x1 = 0.9468 | – | 378.4
313.15 K, x1 = 1 | 1174.9 | 395.9
318.15 K, x1 = 0.0015 | – | 77.1
318.15 K, x1 = 0.002 | – | 77.7
318.15 K, x1 = 0.0027 | – | 78
318.15 K, x1 = 0.0036 | – | 78.4
318.15 K, x1 = 0.0102 | – | 81.7
318.15 K, x1 = 0.0494 | 1051.3 | –
318.15 K, x1 = 0.0938 | – | 114.7
318.15 K, x1 = 0.0973 | 1079 | –
318.15 K, x1 = 0.1885 | – | 146
318.15 K, x1 = 0.2312 | 1121.2 | –
318.15 K, x1 = 0.2704 | – | 171.4
318.15 K, x1 = 0.3559 | 1139.1 | –
318.15 K, x1 = 0.362 | – | 199.5
318.15 K, x1 = 0.4035 | 1143.7 | –
318.15 K, x1 = 0.4454 | – | 224
318.15 K, x1 = 0.5195 | 1150.2 | –
318.15 K, x1 = 0.6432 | – | 283.8
318.15 K, x1 = 0.7087 | 1162.2 | –
318.15 K, x1 = 0.7512 | 1163.9 | –
318.15 K, x1 = 0.8094 | – | 336.3
318.15 K, x1 = 0.8791 | – | 358.5
318.15 K, x1 = 0.8838 | 1166.1 | –
318.15 K, x1 = 0.9468 | – | 381.3
318.15 K, x1 = 1 | 1171.6 | 399.3
